Results published in patent US20140024030A1, “PRESELECTION OF SUBJECTS FOR THERAPEUTIC TREATMENT WITH OXYGEN SENSITIVE AGENTS BASED IN HYPOXIC STATUS” (priority 2010, published 2014).
Where two headings read alike, the source gives them in different places.

Tests used:
[1] = system: HCT116 human colon carcinoma xenograft; experiment: HCT116 xenograft model in nude mice (hypoxic tumor); assay type: in vivo; conditions: for efficacy at slowing tumor growth in HCT116 (high hypoxia) versus 786O (low hypoxia) tumors: comparison of HCT116 and 786O xenografts in nude mice
Description: Human tumor cell lines HCT116 (ATCC #CRL-247; Schroy P C, et al. Cancer 76: 201-209, 1995) and 786-O (ATCC #CRL-1932; Williams R D, et al. In Vitro 12: 623-627, 1976), were obtained from the American Type Culture Collection (Manassus, Va., USA) were cultured using routine methods until a sufficient number of cells were obtained for implantation. Studies were conducted on animals between 7 and 12 weeks of age at implantation. To implant HCT116 tumor cells into nude mice, the cells were trypsinized, washed in PBS and resuspended at a concentration of 75×10^6 cells/ml in McCoy's modified medium with 50% of BD Matrigel® Basement Membrane Matrix (BD Biosciences®, Bedford, Mass., USA). To implant 786-O tumor cells into nude mice, the cells were trypsinized as above, washed in PBS and resuspended at a concentration of 75×10^6 cells/ml in RPMI 1640 medium with 50% of BD Matrigel® Basement Membrane Matrix. Using a 27 gauge needle and 1 cc syringe, 0.1 ml of the cell suspension was injected into the corpus adiposum of nude mice. […] The location permits palpation and measurement of the tumors using external calipers. Tumor volumes (V) were calculated by caliper measurement of the width (W), length (L) and thickness (T) of tumors using the following formula: V=0.5236×(L×W×T).

[2] = system: renal cell carcinoma cell lines; conditions: in vitro; cited from earlier work
[3] = system: advanced renal cell carcinoma (RCC); conditions: cited from earlier work; for progression-free survival: P=0.0001
[4] = system: renal cell carcinoma (RCC); conditions: 140 subjects with elevated LDH; temsirolimus vs interferon; log-rank p<0.005; cited from earlier work
[5] = system: metastatic colorectal cancer; conditions: oxaliplatin stratum; arms: panitumumab, bevacizumab and chemotherapy vs bevacizumab and chemotherapy alone; cited from earlier work
[6] = system: 786-O human renal carcinoma xenograft; experiment: 786-O xenograft model in nude mice (low hypoxia tumor); assay type: in vivo
Description: Human tumor cell lines HCT116 (ATCC #CRL-247; Schroy P C, et al. Cancer 76: 201-209, 1995) and 786-O (ATCC #CRL-1932; Williams R D, et al. In Vitro 12: 623-627, 1976), were obtained from the American Type Culture Collection (Manassus, Va., USA) were cultured using routine methods until a sufficient number of cells were obtained for implantation. Studies were conducted on animals between 7 and 12 weeks of age at implantation. To implant HCT116 tumor cells into nude mice, the cells were trypsinized, washed in PBS and resuspended at a concentration of 75×10^6 cells/ml in McCoy's modified medium with 50% of BD Matrigel® Basement Membrane Matrix (BD Biosciences®, Bedford, Mass., USA). To implant 786-O tumor cells into nude mice, the cells were trypsinized as above, washed in PBS and resuspended at a concentration of 75×10^6 cells/ml in RPMI 1640 medium with 50% of BD Matrigel® Basement Membrane Matrix. Using a 27 gauge needle and 1 cc syringe, 0.1 ml of the cell suspension was injected into the corpus adiposum of nude mice. The corpus adiposum is a fat body located in the ventral abdominal vicera in the right quadrant of the abdomen at the juncture of the os coxae (pelvic bone) and the os femoris (femur). The location permits palpation and measurement of the tumors using external calipers. Tumor volumes (V) were calculated by caliper measurement of the width (W), length (L) and thickness (T) of tumors using the following formula: V=0.5236×(L×W×T). Animals were randomized into treatment groups so that the average tumor volumes of each group were similar at the start of dosing.
A tumor model in which the tumors have relatively high and low levels of LDH5, indicating high and low levels of hypoxia, using human tumor cell lines HCT116 and 786-O was established as set forth in the previous example.
As above, HCT116 and 786-O cells were cultured and implanted into nude mice using the methods in the previous example. Tumor growth was measured using calipers. Prior to treatment with the various agents, tumors were permitted to develop in vivo until they reached approximately 150 mm^3 in volume, which typically required 2-3 weeks following implantation. Animals were randomized into treatment groups so that the average tumor volumes of each group were similar at the start of dosing.
Tumor volume was monitored throughout the course of the study, until up to about 40 days from the date of tumor implantation. The exact number of days of the study depended on a number of factors including, for example, the number of days from implantation for the tumors to reach the desired volume.

renal cancer = conditions: cited from earlier work; for patients with decreased tumor size: arms: bevacizumab and interferon-alpha vs interferon-alpha alone
[7] = system: metastatic pancreatic cancer; conditions: cited from earlier work
[8] = system: metastatic colorectal cancer; conditions: bevacizumab plus 5-FU/Leucovorin vs 5-FU/Leucovorin alone; not statistically significant; cited from earlier work
[9] = system: metastatic colorectal cancer; conditions: arms: bevacizumab plus 5-FU/Leucovorin vs IFL regimen alone; cited from earlier work
pancreatic cancer = conditions: PTK787 orally daily with gemcitabine, cited from earlier work
[10] = system: metastatic colorectal cancer (mCRC); conditions: cited from earlier work
[11] = system: metastatic colorectal cancer (mCRC); conditions: cited from earlier work; remark: listed apart in the source
[12] = system: mCRC pretreated with 5-FU/irinotecan; conditions: cited from earlier work
[13] = system: phosphorylated RPS6 (ribosomal protein S6); conditions: TSC1-deficient cells; cited from earlier work
treatment-naïve RCC = conditions: final analysis; arms: sunitinib vs IFN-α; cited from earlier work
[14] = system: locally advanced, unresectable or metastatic pancreatic cancer; conditions: 100 mg cohort, arms: gemcitabine plus erlotinib vs gemcitabine alone, cited from earlier work
[15] = system: advanced pancreatic cancer; conditions: Phase II, combination chemotherapy with Gemcitabine; cited from earlier work
[16] = system: advanced pancreatic cancer; conditions: Phase III, combination with Gemcitabine; cited from earlier work
[17] = system: advanced renal cell carcinoma; conditions: cited from earlier work
hepatocellular carcinoma = conditions: cited from earlier work
[18] = system: metastatic malignancies including renal cell carcinoma; conditions: cited from earlier work
[19] = arms: temsirolimus alone vs interferon-alpha

CO[C@H]1C[C@@H]2CC[C@@H](C)[C@@](O)(O2)C(=O)C(=O)N2CCCC[C@H]2C(=O)O[C@H]([C@H](C)C[C@@H]2CC[C@@H](OC(=O)C(C)(CO)CO)[C@H](OC)C2)CC(=O)[C@H](C)/C=C(\C)[C@@H](O)[C@@H](OC)C(=O)[C@H](C)C[C@H](C)/C=C/C=C/C=C/1C [temsirolimus]
efficacy at slowing tumor growth in HCT116 (high hypoxia) versus 786O (low hypoxia) tumors [1]: not found to work better in the tumors with a higher level of hypoxia
activity of mTOR [2]: inhibited the activity of mTOR
levels of HIF-1, HIF-2 alpha and VEGF [2]: reduced levels of the hypoxia-inducible factors HIF-1 and HIF-2 alpha, and the vascular endothelial growth factor
progression-free survival [3, 19]: 5.5 months
overall survival versus interferon-alpha alone ([3]; combination of temsirolimus and interferon-alpha): did not result in a significant increase in overall survival
increase in median overall survival ([3]; temsirolimus compared to interferon-alpha): 49%
survival [4]: 6.9 months

bevacizumab: recombinant humanized monoclonal IgG1 antibody that binds to and inhibits human vascular endothelial growth factor (VEGF)
tumor growth versus control ([1]; bevacizumab 4 mg/kg i.p., p=0.0424): reduced the growth of the tumor as compared to control
efficacy at slowing tumor growth in HCT116 (high hypoxia) versus 786O (low hypoxia) tumors [1]: more effective at slowing tumor growth in tumors with high levels of hypoxia
tumor growth versus control ([1]; lower dose of bevacizumab (1 mg/kg) i.p., p=0.1274): small trend to decreased tumor growth
median PFS [5]: 10.5 months
tumor burden versus control ([6]; higher dose of bevacizumab (4 mg/kg) i.p., p=0.011): greatest tumor burden
tumor burden versus control ([6]; low dose bevacizumab (1 mg/kg) i.p., p=0.437): no significant difference in tumor burden
patients with decreased tumor size (renal cancer): 30%
increase in progression-free survival time (renal cancer; interferon-alpha with bevacizumab vs interferon-alpha alone): about 5 months
progression free survival HR ([7]; bevacizumab vs placebo, both with gemcitabine and erlotinib, P=0.0002): 0.73
median overall survival ([7]; bevacizumab, gemcitabine and erlotinib arm (306 patients)): 7.1 months
improvement in median survival [8]: 29%
progression-free survival [9]: 8.7 months

Clc1ccc(Nc2nnc(Cc3ccncc3)c3ccccc23)cc1 [PTK787, N-(4-chlorophenyl)-4-(pyridin-4-ylmethyl)phthalazin-1-amine]
tumor growth versus control ([1]; 50 mg/kg 5x/week P.O., p=0.1209): reduced the growth of the tumor as compared to control
efficacy at slowing tumor growth in HCT116 (high hypoxia) versus 786O (low hypoxia) tumors [1]: more effective at slowing tumor growth in tumors with high levels of hypoxia
tumor burden versus control ([6]; 50 mg/kg 5x/week P.O., p=0.7805): no difference in tumor burden
tumor burden versus control ([6]; XL765 study (FIG. 4B), 30 mg/kg 5x/week P.O., p=0.7682): no difference in tumor burden
tumor burden versus control ([6]; erlotinib study (FIG. 5B), 1x/week P.O., p=0.8548): no difference in tumor burden
duration of stable disease (pancreatic cancer): 2-6 months
patients with stable disease as the best response (pancreatic cancer; six of eleven patients): 55%
PFS HR ([10]; All CONFIRM 1 & 2 High LDH Patients, N 566): 0.62
PFS HR ([10]; All CONFIRM 1 & 2 Patients, N 2023): 0.82
PFS HR ([11]; CONFIRM 1 - High LDH, N 316, PTK787 1250 mg/day vs placebo): 0.61
PFS HR ([11]; CONFIRM 1 - Low LDH, N 852): 0.93
PFS HR ([12]; CONFIRM 2 - High LDH, N 250, PTK787 1250 mg/day vs placebo): 0.63
PFS HR ([12]; CONFIRM 2 - Low LDH, N 605): 0.95

Cn1c(=O)n(-c2ccc(C(C)(C)C#N)cc2)c2c3cc(-c4cnc5ccccc5c4)ccc3ncc21 [BEZ235]
efficacy at slowing tumor growth in HCT116 (high hypoxia) versus 786O (low hypoxia) tumors [1]: not found to work better in the tumors with a higher level of hypoxia
levels of phosphorylated RPS6 [13]: significantly reduce the levels of phosphorylated RPS6

interferon-alpha
patients with decreased tumor size (renal cancer): 12%
progression-free survival [3, 19]: 3.1 months
median overall survival ([3]; arms: temsirolimus alone vs interferon-alpha, P=0.0078): 7.3 months
median OS (treatment-naïve RCC): 94.9 weeks
survival [4]: 4.2 months

Nc1ccn([C@@H]2O[C@H](CO)[C@@H](O)C2(F)F)c(=O)n1 [gemcitabine]
progression free survival ([14]; p=0.006): 3.5 months
survival ([14]; p=0.028): 6.0 months

CNC(=O)c1ccccc1Sc1ccc2c(/C=C/c3ccccn3)n[nH]c2c1 [Axitinib, N-Methyl-2-[[3-[(E)-2-pyridin-2-ylethenyl]-1H-indazol-6-yl]sulfanyl]benzamide]
response [15]: good response
survival rates versus Gemcitabine alone [16]: no evidence of improved survival rates

COc1cc(Nc2nc3ccccc3nc2NS(=O)(=O)c2ccc(NC(=O)c3ccc(C)c(OC)c3)cc2)cc(OC)c1 [XL765]
tumor growth rate versus control ([1]; XL765 30 mg/kg 5x/week P.O., p=0.009): reduced the growth rate of the tumor as compared to control
efficacy at slowing tumor growth in HCT116 (high hypoxia) versus 786O (low hypoxia) tumors [1]: more effective at slowing tumor growth in tumors with high levels of hypoxia

CNC(=O)c1cc(Oc2ccc(NC(=O)Nc3ccc(Cl)c(C(F)(F)F)c3)cc2)ccn1 [sorafenib]
efficacy at slowing tumor growth in HCT116 (high hypoxia) versus 786O (low hypoxia) tumors [1]: not found to work better in the tumors with a higher level of hypoxia
median progression free survival ([17]; 769 patients, sorafenib 400 mg twice daily (N=384)): 167 days
estimated improvement in overall survival vs placebo ([17]; as of 30 Nov. 2005, 367 deaths): 30%
median PFS ([17]; patients with no prior IL-2 or interferon therapy (N=137)): 172 days
median overall survival ([17]; sorafenib 400 mg twice daily, 367 deaths): 19.3 months
progression free survival HR ([17]; sorafenib vs placebo, p<0.000001): 0.44
disease control rate (DCR) (hepatocellular carcinoma; disease stabilization for at least 28 days): 43.48%
time to progression HR (hepatocellular carcinoma; independent radiological review, sorafenib vs placebo, p=0.000007): 0.58
overall survival HR (hepatocellular carcinoma; sorafenib 400 mg twice daily vs placebo, p=0.00058): 0.69
progression free rate ([18]; at 24 weeks, p=0.0077): 50%
progression free survival HR ([18]; sorafenib vs placebo): 0.29
